For four compounds, EC50 results are on record in patent publication US8791155B2, “Chroman derivatives” (Edison Pharmaceuticals, Inc., priority 2003, dated 2014).

Common to all, as to assay type: cell-based
In test [1] the test system is dopaminergic neuronal cell line. Description: High glutamate-induced oxidative stress assay (HGOS). To be noted: Mus musculus; 30 mM glutamate, 16 hrs; read-out: EC50, protection against HGOS cell injury and cell death. From the text:
Protection against redox stress can be evaluated in cell culture using high glutamate induced oxidative stress (HGOS) in mouse dopaminergic cell lines. The cytotoxic effect of glutamate is not due to excitotoxicity, as this cell line is devoid of inotropic glutamate receptors. Rather, the glutamate-induced toxicity of dopaminergic cells is associated with an inhibition of cystine transport which subsequently leads to depletion of intracellular glutathione (GSH) levels (Murphy T. H., et al. Neuron 2, 1547-1558, 1989), activation of neuronal 12-lipoxygenase (Li, Y. et al., Neuron 19, 453-463, 1997), increased ROS production (Tan S. et al., J. Cell Biol. 141, 1423-1432, 1998) and elevated intracellular Cat^2+ (Li, Y. et al., see supra). Some molecules were measured for their ability to protect cells against glutamate-induced stress and the assay is detailed in Examples.
This procedure was used to induce high glutamate-induced oxidative stress (HGOS) in a dopaminergic neuronal cell line. Using this assay the potency and efficacy of test articles against HGOS neuronal cell injury and cell death was established in a high throughput manner.
• Dopaminergic neuronal cell lines • DMEM-No Glucose (Life Technologies Cat #11966-025) • L-glutamine (Life Technologies Cat #25030-081) • L-glutamic acid, monosodium salt (Sigma Cat #G5889) • D-glucose (Sigma Cat #G-6151) • 10×HBSS buffer (pH 7.4) (950 ml Pyrogen-free water, 2.44 g/L MgCl2.6H20, 3.73 g/L KCl, 59.58 g/L Hepes, 58.44 g/L NaCl, 1.36 g/L KH2PO4, 1.91 g/L CaCl2.2H2O and pH to […] with HCl) • Cell Tracker Green fluorescent dye (Molecular Probes, Cat #2925). Prepare a 5NM solution in pre-warmed HBSS just prior to use. • Sterile 96-well plates precoated with poly-D-lysine (Corning Catalog #3665) • 96-well deep well mother plate, DyNA Block 1000 (VWR Catalog #40002-008) Neuronal Cells
The cells were seeded into 96-well plates at a density of 2000 per well and left to grow for 72 hours in a 33° C. incubator with 5% CO2 in air atmosphere. The passage number of the cells for each assay experiment were no later than p11 in order to minimize experimental variation.
All compounds were dissolved in DMEM-No Glu containing 1 mM glucose, 30 mM glutamate and 1× Pen/Strep. DMEM-No Glu with 1 mM glucose and 1× P/S was used as the negative control, DMEM-No Glucose with 1 mM glucose, […] glutamate was used as a positive control and 100 NM Glutathione was added to the positive control as a standard. All of the procedures for this involving the making and dilution of compounds were performed using aseptic conditions and with minimal light.
The plates were removed from the incubator and examined under the microscope for morphological appearance and density. Using an aseptic technique and an 8-channel aspirator the media was carefully removed from the cells and replaced with 200 μI of 1×HBSS. This was done as quickly as possible to prevent the cells drying out. The plates were then placed in the humidified 37° C. incubators of the Biomek 2000 Side Loader. Four plates were washed at a time so as to minimize the time that the cells were sitting in 1×HBSS prior to addition of the compound test solution. Experimental Setup
The Beckman Biomek workstations were used to load the compounds and controls from the mother plates onto the cell plates that were prewashed with HBSS under sterile conditions. The plates were incubated in the upper HTS incubator at 37° C. in 5% CO2 for exactly 16 hrs. The following day, using the Beckman Biomek workstations, the plates were removed from the incubator. Using Cell Tracker Addition, the compounds were removed from the plates, washed once with […] of pre-warmed 1×HBSS and then 100 μL of 5 μM Cell Tracker Green was added to each well. The plates were incubated at 37° C. for 30 min to allow the dye to enter the cell and be cleaved by the esterases. […]

The subject of test [2] is IL-1β release from a mouse microglial cell line. Put plainly: Interleukin-1β microglial cell assay (LPS / IFN gamma). To be noted: LPS (10 μg/ml) and IFN gamma (10 ng/ml), 24 hours, read-out: EC50, inhibition of IL-1 beta induction. The procedure:
This assay measures the release of IL-1β from a mouse microglial cell line following an inflammatory challenge with LPS and interferon-gamma. The ability of test articles to inhibit microglial cell activation and IL-1β release is determined by co-incubation of the test article with the inflammatory challenge.
Mouse microglial cells were seeded in poly-D-lysine coated 96-well plates at a density of 10,000 cells/well and allowed to attach for 24 hours. Cells were stimulated by addition of LPS (10 μg/ml) and IFN gamma (10 ng/ml) in the presence or absence of test article. The cells were then incubated for 24 hours at 37° C., after which time the media was removed and used for cytokine determination as described below.
Viability of mouse microglial cells after exposure to the test article was determined using a fluorescent viability dye, Cell Tracker Green. Cell Tracker Green was used at a working concentration of 5 μM in 1×HBSS. Cells were washed once with HBSS (200 μl/well) and 100 μl Cell Tracker Green was added to each well. Cells were then incubated at 37° C. for 30 minutes, after which time the Cell Tracker was removed and the cells were washed once with HBSS (200 μl/well). 100 pl fresh HBSS was added to each well and the plate was read on a Fluoroskan plate reader using an excitation wavelength of 485 nm and an emission wavelength of 538 nm.
1. […]
• The Costar EIA Hi-binding plate was coated with capture antibody at 4 μg/ml. […] Each well was filled to the top, dispensed, and any remaining buffer was removed by inverting the plate and gently blotting against clean paper towels. • Non-specific binding sites were blocked by adding 300 μl of Blocking Buffer to each well, and after sealing incubating for at least 1 hour at room temperature. • After washing the plate was now ready for the samples. […] 100 μl of this Substrate Solution mixture was added to each well and the plate was incubated in the dark for 20 minutes at room temperature. • 50 μl of Stop Solution was added to each well, mixing was ensured by gently tapping. • Each plate was read with the Spectramax once at 450 nm. […]

Another test has as its system FRDA fibroblasts. Put plainly: FRDA fibroblast assay for protection from oxidative stress (BSO). Conditions: Homo sapiens, preincubation 24 h before 1 mM BSO, read-out: EC50, reduced cell death in FRDA fibroblasts compared to untreated FRDA fibroblasts. From the text: A cellular assay using FRDA-patient derived fibroblasts (as described by Jauslin, M L et al, Human Molecular Genetics 11; 3055-3063 (2002)); was used to determine the protective effects of the test compounds by analyzing survival of dermal fibroblasts taken from FRDA patients and unaffected normal donors under conditions of partial GSH depletion. Exposure of FRDA fibroblasts to BSO (L-buthionine (S,R)-sulfoximine) under conditions of restricted selenium causes depletion of cellular glutathione (GSH) and severe plasma membrane damage leading to cell death. Preincubation with the test compounds before the addition of BSO was used to determine if they could protect FRDA cells from BSO-mediated cell death.
Primary fibroblasts were derived from donors with a molecular diagnosis of FRDA and control donors with no mitochondria) disease. Lines F2, C2 and C3 were obtained from Coriell Cell Repositories (Camden, N.J., USA; catalog nos GM04078, GM 08402 and GM08399, respectively). All cell types were diagnosed at the molecular level for intronic GAA triplet repeat length in the frataxin gene using a PCR-based method, according to methods known in the art. […] The cells were seeded in 96-well plates at a density of 4000 cells per 100 pI in growth medium consisting of 25% (v/v) M199 EBS and 64% (v/v) MEM EBS without phenol red (Bioconcept, Allschwil, Switzerland) supplemented with 10% (v/v) fetal calf serum (PAA Laboratories, Linz, Austria), 100 U/ml penicillin, 100 μg/ml streptomycin (PAA Laboratories, Linz, Austria), 10 μg/ml insulin (Sigma, Buchs, Switzerland), 10 ng/ml EGF (Sigma, Buchs, Switzerland), 10 ng/ml bFGF (PreproTech, Rocky Hill, N.J., USA) and 2 mM glutamine (Sigma, Buchs, Switzerland). The cells were incubated in the presence of the various test compounds for 24 h before addition of 1 mM BSO (L-buthionine (S,R)-sulfoximine).
Cell viability was measured after the first signs of toxicity appeared in the BSO-treated controls (typically after 16-48 h). The cells were stained for 60 min at room temperature in PBS with 1.2 μm calceinAM and 4 pm ethidium homodimer (Live/Dead assay, Molecular Probes, Eugene, Oreg., USA). Fluorescence intensity was measured with a Gemini Spectramax XS spectrofluorimeter (Molecular Devices, Sunnyvale, Calif., USA) using excitation and emission wavelengths of 485 and 525 nm, respectively.

Usually EC50 stands for the concentration giving half of the maximal effect. For `Cc1cc(C)nc(SCc2c(O)c(C)c(C)c3c2CCC(C)(C)O3)n1` [5-(4,6-Dimethyl-pyrimidin-2-ylsulfanylmethyl)-2,2,7,8-tetramethyl-chroman-6-ol], the EC50 in test [1] is < 5 µM; in test [2], ≤ 20 µM.
For `Cc1c(C)c2c(c(CSC3CCCC3)c1O)CCC(C)(C)O2` [5-Cyclopentylsulfanylmethyl-2,2,7,8-tetramethyl-chroman-6-ol], the EC50 in test [1] is < 5 µM; in the test with FRDA fibroblasts, 0.01 to 6 µM.
For the compound `CCCCCCSCc1c(O)c(C)c(C)c2c1CCC(C)(C)O2` [5-Hexylsulfanylmethyl-2,2,7,8-tetramethyl-chroman-6-ol], the EC50 was < 5 µM in test [1] and 0.01 to 6 µM in the test on FRDA fibroblasts.
On the same counts, the results for `Cc1c(C)c2c(c(CSCC(C)C(=O)N3CCCC3C(=O)O)c1O)CCC(C)(CCCC(C)CCCC(C)CCCC(C)C)O2` (centres unmarked) [1-{3-[6-Hydroxy-2,7,8-trimethyl-2-(4,8,12-trimethyl-tridecyl)-chroman-5-ylmethylsulfanyl]-2-methyl-propionyl}-pyrrolidine-2-carboxylic acid] are < 5 µM and 0.01 to 6 µM.
